Measurements: the supplement of paper PMC10307832

Experiments:
Test in all cases: relative viability (nuclei count vs DMSO), 5 days (fraction); higher = more cells survive
Irinotecan + AZD7762 = compound: CCc1c2c(nc3ccc(OC(=O)N4CCC(N5CCCCC5)CC4)cc13)-c1cc3c(c(=O)n1C2)COC(=O)[C@]3(O)CC [Irinotecan] + NC(=O)Nc1cc(-c2cccc(F)c2)sc1C(=O)N[C@H]1CCCNC1 [AZD7762] (partner 0.2 µM)
Summary of the method: (§1)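 Each reported value is a median over duplicate plates. It expresses relative viability: treated-well nuclei count divided by vehicle-well nuclei count. Lung cancer cell lines in 1536-well plates were dosed by pin tool a day after seeding, alone with one drug or with a fixed anchor-drug dose plus five library-drug doses (not always all listed) in √10 steps, and nuclei were counted after 5 days.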

MK-8033 + Dasatinib = compound: Cn1cc(-c2cnc3ccc4ccc(CS(=O)(=O)NCc5ccccn5)cc4c(=O)c3c2)cn1 [MK-8033] + Cc1nc(Nc2ncc(C(=O)Nc3c(C)cccc3Cl)s2)cc(N2CCN(CCO)CC2)n1 [Dasatinib] (partner 0.075 µM)
Summary of the method: as §1

MK-8033 + Foretinib = compound: Cn1cc(-c2cnc3ccc4ccc(CS(=O)(=O)NCc5ccccn5)cc4c(=O)c3c2)cn1 [MK-8033] + COc1cc2c(Oc3ccc(NC(=O)C4(C(=O)Nc5ccc(F)cc5)CC4)cc3F)ccnc2cc1OCCCN1CCOCC1 [Foretinib] (partner 0.25 µM)
Summary of the method: as §1

RU-SKI 43 + Pemetrexed = compound: CC[C@@H](C)CNCC(=O)N1CCC2=C([C@@H]1COC3=CC=CC(=C3)C)C=CS2 [RU-SKI 43] + Nc1nc2[nH]cc(CCc3ccc(C(=O)N[C@@H](CCC(=O)O)C(=O)O)cc3)c2c(=O)[nH]1 [Pemetrexed] (partner 0.2 µM)
Summary of the method: as §1

| Cell Line | relative viability (Irinotecan + AZD7762; first compound 2 µM) | relative viability (Irinotecan + AZD7762; first compound 6.325 µM) | relative viability (Irinotecan + AZD7762; first compound 20 µM) | relative viability (MK-8033 + Dasatinib; first compound 0.02 µM) | relative viability (MK-8033 + Dasatinib; first compound 0.06325 µM) | relative viability (MK-8033 + Dasatinib; first compound 0.2 µM) | relative viability (MK-8033 + Dasatinib; first compound 0.6325 µM) | relative viability (MK-8033 + Dasatinib; first compound 2 µM) | relative viability (MK-8033 + Foretinib; first compound 0.02 µM) | relative viability (MK-8033 + Foretinib; first compound 0.06325 µM) | relative viability (MK-8033 + Foretinib; first compound 0.2 µM) | relative viability (MK-8033 + Foretinib; first compound 0.6325 µM) | relative viability (MK-8033 + Foretinib; first compound 2 µM) | relative viability (RU-SKI 43 + Pemetrexed; first compound 0.1 µM) | relative viability (RU-SKI 43 + Pemetrexed; first compound 0.3162 µM) | relative viability (RU-SKI 43 + Pemetrexed; first compound 1 µM) | relative viability (RU-SKI 43 + Pemetrexed; first compound 3.162 µM) | relative viability (RU-SKI 43 + Pemetrexed; first compound 10 µM) | relative viability (Irinotecan + AZD7762; first compound 0.6325 µM) |
| --- | --- | --- | --- | --- | --- | --- | --- | --- | --- | --- | --- | --- | --- | --- | --- | --- | --- | --- | --- |
| NCI-H1734 | 0.399 | 0.185 | 0.139 | 0.441 | 0.469 | 0.429 | 0.411 | 0.395 | 0.829 | 0.665 | 0.78 | 0.861 | 0.856 | 0.44 | 0.406 | 0.426 | 0.41 | 0.407 | – |
| SW 900 | 0.587 | 0.472 | 0.404 | 0.378 | 0.394 | 0.476 | 0.907 | 0.424 | 0.732 | 0.813 | 0.665 | 0.88 | 0.79 | 0.484 | 0.494 | 0.498 | 0.478 | 0.461 | – |
| NCI-H2170 | 0.562 | 0.173 | 0.133 | 0.681 | 0.553 | 0.604 | 0.581 | 0.481 | 1.03 | 0.966 | 0.959 | 1.06 | 1.09 | 0.251 | 0.297 | 0.262 | 0.275 | 0.243 | 0.649 |
| NCI-H1975 | 0.7 | 0.527 | 0.322 | 0.329 | 0.344 | 0.357 | – | 0.343 | 0.944 | 0.944 | 0.875 | – | 1 | 0.311 | 0.298 | 0.341 | 0.327 | 0.292 | 0.826 |
| NCI-H1437 | 0.557 | 0.261 | 0.174 | 0.493 | 0.419 | 0.402 | 0.361 | 0.419 | 1.21 | 1.3 | 1.19 | 1.23 | 1.19 | 0.318 | 0.352 | 0.328 | 0.306 | 0.295 | 0.891 |
| A-427 | 0.642 | 0.315 | 0.18 | 0.677 | 0.701 | 0.661 | 0.731 | 0.67 | 1.04 | 1.04 | 0.903 | 1.11 | 1 | 1.02 | 0.948 | 1.15 | 1.04 | 0.995 | 0.712 |
| NCI-H2405 | 0.765 | 0.298 | 0.197 | 0.185 | 0.202 | 0.228 | 0.213 | 0.21 | 1.01 | 1.02 | 0.988 | 1.09 | 1.04 | 1.16 | 1.14 | 1.11 | 1.21 | 1.13 | – |
| LC-2-ad | 0.567 | 0.272 | 0.17 | 0.547 | 0.437 | – | 0.67 | 0.61 | 0.94 | 0.867 | – | 0.981 | 0.944 | 0.262 | 0.25 | 0.31 | 0.258 | 0.247 | 0.446 |
| NCI-H1944 | 0.276 | 0.21 | 0.153 | 0.205 | 0.201 | 0.221 | 0.202 | 0.234 | 0.88 | 0.773 | 0.852 | 0.962 | 0.927 | 0.614 | 0.711 | 0.566 | 0.619 | 0.707 | 0.414 |
| NCI-H322M | 0.553 | 0.448 | 0.28 | 0.283 | 0.243 | 0.238 | 0.263 | 0.261 | 0.918 | 0.868 | 0.955 | 1.03 | 0.965 | 0.642 | 0.68 | 0.662 | 0.673 | 0.572 | 0.537 |
| HCC-827 | 0.193 | 0.203 | 0.182 | 0.334 | 0.114 | 0.342 | 0.283 | 0.304 | 1.1 | – | 0.989 | 0.967 | 1.03 | 0.289 | 0.267 | 0.264 | 0.265 | 0.253 | 0.201 |
| NCI-H23 | 0.238 | 0.251 | 0.202 | 0.844 | 0.827 | 0.64 | 0.928 | 0.587 | 0.826 | 0.932 | 0.961 | 1.02 | 0.942 | 0.787 | 0.687 | 0.834 | 0.715 | 0.705 | 0.158 |
| NCI-H2342 | 0.514 | 0.489 | 0.462 | 0.329 | 0.277 | 0.35 | 0.33 | 0.352 | 1.04 | 1.08 | 0.976 | 0.947 | 1.07 | 0.757 | – | 0.831 | 0.812 | 0.711 | 0.516 |
| EMC-BAC-2 | 0.696 | 0.327 | 0.287 | 0.324 | 0.325 | 0.327 | 0.33 | 0.339 | 0.899 | 0.942 | 0.936 | 1.05 | 0.971 | 0.441 | 0.401 | 0.455 | 0.428 | 0.443 | 0.942 |
| EPLC-272H | 0.234 | 0.133 | 0.137 | 0.375 | 0.273 | 0.297 | 0.319 | 0.336 | 0.608 | 0.537 | 0.61 | 0.605 | 0.507 | 0.349 | 0.405 | 0.243 | 0.317 | 0.238 | – |
| EKVX | 0.632 | 0.426 | 0.246 | 0.519 | 0.499 | 0.569 | 0.434 | 0.551 | 0.849 | 0.702 | 0.79 | 0.48 | 0.968 | 0.419 | 0.344 | 0.417 | 0.407 | 0.393 | – |
| HCC-15 | 1.08 | 0.609 | 0.22 | 0.639 | 0.541 | 0.542 | 0.6 | 0.616 | 0.977 | 0.919 | 0.994 | 1.04 | 1.02 | 0.215 | 0.229 | 0.241 | 0.217 | 0.2 | 1.09 |
